Measurements reported in patent US20120021061A1, “MEDICAL AND NUTRITIONAL FORMULATIONS” (Comvita New Zealand Limited, priority 2008, published 2012).
Where two headings read alike, the source gives them in different places.

Assays:
H. pylori SS1 = assay: Viability of H. pylori SS1 after overnight incubation with MGO or honey (drop plate CFU); assay type: cell-based, Helicobacter pylori; details: for Helicobacter pylori viable count: catalase treated
Procedure: The H. pylori SS1 strain was obtained and initially cultured on Campylobacter Selective Agar (CSA) plates and incubated at 37° C. under microaerobic conditions (10% Co2) for 48 h. Following culture, the isolates were checked for purity (microscopy, catalase and oxidase), after which SS1 was cultured in Brucella broth supplemented with 5% Fetal Bovine Serum and 1% Vitox under microaerobic conditions with shaking for 24 h. The effect of 1) methylglyoxal (MGO), density 1.17 g/ml, 2) Honey M1: Manuka honey O50336-10 (MGO content=0.593 mg/g), 3) Honey M2=Honey M1 adjusted to a pH of 9.0, 4) Honey M3=Comvita Wound Care Honey 18+ (MGO content=0.6 mg/g) and 5) Honey C: Control honey (100% Australian Honey, Leabrook Farms, Australia) on H. pylori was determined. MGO at concentrations of 1, 5, 10, 20, 50 and 100 mg/L were prepared by dissolving an appropriate amount of MGO in Brucella broth. To ensure an equivalent concentration of MGO in the Manuka honeys, the appropriate weight of honey (Honey M1 and Honey M2=6.75 g), (Honey M3=6.67 g) was measured out, after which an equal volume of Brucella broth at 37° C. was added to the honey and this was vortexed to aid mixing. Following vortexing, an equal volume of catalase solution (2 mg/ml) prepared from bovine liver was added to negate the effect of hydrogen peroxide, and this was again vortexed to aid mixing. The total volume was then adjusted to 40 ml using Brucella broth. […] The control Honey C was prepared in a similar fashion starting with an initial weight=6.71 g). To avoid contamination with lactic acid bacteria that are commonly present in honey (e.g. Leuconostoc citreum and Lactococcus garvieae), preparations of honey M1 and Honey C were filter sterilized through 0.22 µm pore size membrane filters prior to use in the in vitro assay. The Comvita wound care 18+ honey was not filter sterilised as this product undergoes sterilisation on manufacture. […] H. pylori were grown in broth culture overnight as described above. Following incubation, cells were washed once and resuspended in Brucella broth to an Optical Density (OD) 600 1.5. Ten pl of the microbial suspension was then inoculated into wells of a 96-well microtiter plate containing 200 pl of broth, supplemented with a range of concentrations of MGO (0, 1, 5, 10, 20, 50 and 100 mg/L), or an equivalent concentration of MGO contained in the Manuka honeys, or the same percentage of control honey. Each of the concentrations of MGO, MGO in the Manuka honeys and the control honey were tested in triplicate. Following addition of H. pylori to the microtiter plates, these were incubated under microaerobic conditions (10% CO2) overnight. Following incubation the number of viable colonies in the wells was assessed using the drop plate method. Following incubation the number of visible colonies on CSA agar plates were counted and the colony forming units (CFU)/ml calculated.

Helicobacter pylori = Helicobacter pylori infected mice fed honey; assay type: in vivo; details: honey 2.8 g/kg body weight, MGO given in sugar solution
Excerpt: An experiment was completed feeding manuka honey with a UMF 22 to Helicobacter pylori infected mice at a rate of 2.8 g/kg body weight honey.

IL-1β = assay: Cytokine production by peripheral blood mononuclear cells, IL-1β; assay type: cell-based; details: human PBMC supernatants; FIG. 9
Procedure: (§1) An experiment was completed using three honey samples, the first being a high UMF manuka honey containing 1002 mg of MGO/kg, a moderate UMF manuka honey containing 649 mg of MGO/kg, a clover honey containing minimal MGO/kg and pure MGO alone. Results were compared against a negative control with cells alone […] and PHA as the inflammatory agent. Human blood was collected from six donors and peripheral blood mononuclear cells were separated by Ficoll gradients. Donor bloods were processed in pairs. The experiments tested the effect of the honey on the blood cells and the levels of cytokines produced. Supernatents from cells incubated with varying honey and MGO concentrations were collected and assayed for a number of pro and anti-inflammatory cytokines. Cytokines are molecules secreted by cells that are involved in communication between cells. Cytokines bind to specific receptors on cell surfaces and the signals then created can alter cellular functions. The cytokines tested in this study were IL-1β, IL-10 and […]. Cytokines were measured using a biorad, bioplex suspension array system.

IL-10 = assay: Cytokine production by peripheral blood mononuclear cells, IL-10; assay type: cell-based; details: human PBMC supernatants; FIG. 10
Procedure: as §1

TNFα = assay: Cytokine production by peripheral blood mononuclear cells, TNFα; assay type: cell-based; details: human PBMC supernatants; FIG. 11
Procedure: as §1

neutrophils = assay: Neutrophil superoxide production with honeys of increasing MGO; assay type: cell-based; details: increasing MGO concentrations in honey
Excerpt: The inventors conducted an experiment to determine whether increasing MGO concentrations also increase the ability of honey with the MGO to prevent or slow neutrophils from making superoxides (a part of the inflammatory response).

E. coli O157/Nissle = assay type: cell-based; details: no honey

## CC(=O)C=O [MGO (pH 9), methylglyoxal]
H. pylori SS1; MGO conc 50 mg/L, honey conc 8.4%, listed as MGO at pH 9
  Helicobacter pylori viable count: 6.9×10^6 CFU/ml
H. pylori SS1; MGO conc 100 mg/L, honey conc 16.7%, listed as MGO at pH 9
  Helicobacter pylori viable count: 1.7×10^6 CFU/ml

## CC(=O)C=O [MGO, methylglyoxal]
Helicobacter pylori
  H. pylori bacteria numbers in infected mice: does not reduce bacteria numbers alone
IL-1β
  IL-1β production: no effect
IL-10
  IL-10 values: not affected
H. pylori SS1; MGO alone or equivalent MGO in honey
  MGO concentration at which CFU of H. pylori SS1 were reduced: ≥ 20 mg/L
H. pylori SS1; MGO conc 20 mg/L, honey conc 4.2%
  Helicobacter pylori viable count: 7.1×10^6 CFU/ml
H. pylori SS1; MGO conc 50 mg/L, honey conc 8.4%
  Helicobacter pylori viable count: 7.0×10^5 CFU/ml
H. pylori SS1; MGO conc 100 mg/L, honey conc 16.7%
  Helicobacter pylori viable count: 1.1×10^4 CFU/ml
TNFα
  TNFα production: no effect
neutrophils
  Ability to prevent or slow neutrophils from making superoxides: made no difference at all

## OO [Peroxide, hydrogen peroxide]
E. coli O157/Nissle; peroxide 36.7 mM + catalase 1000 U/mL
  Mean inhibition zone (n = 3): 0.0 mm
E. coli O157/Nissle; peroxide 36.7 mM alone
  Mean inhibition zone (n = 3): 3.3 mm

## Catalase
E. coli O157/Nissle; catalase 1000 U/mL alone
  Mean inhibition zone (n = 3): 0.0 mm
